Values of other authors as cited in patent US20030157036A1, “Topical dapsone for the treatment of acne” (priority 2002, published 2003).

Test system: P. acnes

Nc1ccc(S(=O)(=O)c2ccc(N)cc2)cc1 [Dapsone, bis(4-aminophenyl)sulfone]
minimum inhibitory concentration: about 1 microgram per milliliter
